Reference: patent US9115145B2, “Tocotrienol derivatives and associated methods” (FIRST TECH INTERNATIONAL LIMITED, priority 2011, dated 2015)
Like-named read-outs stand apart in the source and are kept apart here.

Assays:
[1] = tested on: MCF 10A non-tumorigenic mammary epithelial cells; experiment: MTT assay of MCF10A cells; type: cell-based, human
Method in brief: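 MCF 10A non-tumorigenic human mammary epithelial cells were seeded at 10×10^4 cells/well and treated with compounds in serum-free medium, final DMSO below 0.1%. Viability was read by MTT, and IC50 came from non-linear regression. Selectivity index = MCF 10A IC50 ÷ +SA cell line IC50.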

[2] = tested on: MCF7 human breast cancer cell line; experiment: MTT assay of MCF7 cells; type: cell-based; details: media containing 1% fetal bovine serum
Method: (§1) MDA-MB-231 and MCF7 cells were plated at a density of 8×10^3 cells/well and 10^4 cells/well in 96-well culture plates, respectively. The compounds were fed in serum free media containing 5% and 1% fetal bovine serum for MDA-MB-231 and MCF7 cells, respectively.

[3] = tested on: MDA-MB-231 human breast cancer cell line; experiment: MTT assay of MDA-MB-231 cells; type: cell-based; details: media containing 5% fetal bovine serum
Method: as §1

+SA mammary tumor = experiment: +SA tumor implantation into mammary fat pads of syngeneic BALB/c mice; type: in vivo
From the text: The malignant +SA mammary epithelial cell line was derived from an adenocarcinoma that developed spontaneously in a female BALB/c mouse. These cells can be grown on plastic in culture and display the ability to grow in soft agarose. Re-implantation of +SA mammary tumor cells back into the mammary fat pad of syngeneic mice results in the rapid development and growth of metastatic tumors. Prior to experimentation, +SA cells were serially passaged at subconfluent cell density. For subculturing, cells are rinsed with calcium/magnesium-free phosphate buffered saline (PBS) and incubated in 0.05% trypsin containing 0.025% EDTA in PBS for 5 min at 37° C. […] Cell pellets are then resuspended in control culture media, counted by hemocytometer, and then plated at the desired density in culture plates. […] On the day of tumour implantation, +SA cells grown in culture are isolated with trypsin, washed, counted and diluted to the desired concentration in fresh culture medium. […] Tumor size and body weighs were recorded every other day. Average tumor diameter for each palpable tumor was determined using the mean of the 2 largest perpendicular diameters as measured with vernier calipers. Tumor volume was determined using the equation: Volume=Length (cm)×Width^2 (cm)/2 or V=L×W^2/2 […]

| Structure (SMILES) | IC50 ([1]; MCF10A cells, Table II, non-linear regression, read-out: MCF10A (IC50)) | IC50 ([1]; MCF 10A non-tumorigenic cells, Table I, read-out: IC50 MCF 10A) | IC50 [2] | IC50 [3] | body weights (+SA mammary tumor; 0.5 mg/day intravenous, 14-day treatment period) | +SA mammary tumor growth (+SA mammary tumor; 0.5 mg/day, tail vein injection, 14 day, vs vehicle-treated control) |
| --- | --- | --- | --- | --- | --- | --- |
| CC(C)=CCC/C(C)=C/CC/C(C)=C/CC[C@]1(C)CCc2cc(O)c(C)c(C)c2O1 [Compound 1, γ-tocotrienol, reference compound] | 4.4 µM | 4.4 µM | 7.1 µM | 9.4 µM | – | – |
| COc1ccc(CCNCc2c(O)c(C)c(C)c3c2CC[C@@](C)(CC/C=C(\C)CC/C=C(\C)CCC=C(C)C)O3)cc1OC [Compound 30, (R)-5-((3,4-dimethoxyphenethylamino)methyl)-2,7,8-trimethyl-2-((3E,7E)-4,8,12-trimethyltrideca-3,7,11-trienyl)chroman-6-ol] | – | – | – | – | did not significantly differ | grew at a significantly slower rate |
